Laboratory results as given in article PMC8964799, “Inhibition of triple negative breast cancer-associated inflammation, tumor growth and brain colonization by targeting monoacylglycerol lipase” (Scientific Reports, 2022).
pIC50: −log10 of the molar value.

Legend:
[1] = biological target: T1, human monoacylglycerol lipase (hMAGL) (Homo sapiens, UniProt Q99685); test: target-based real-time 1H NMR (chemical shift perturbation, covalent adduct formation and reactivation; residence time); format: binding
T1 construct: gene MGLL; highly purified recombinant hMAGL
T1 sequence (Q99685 1-303): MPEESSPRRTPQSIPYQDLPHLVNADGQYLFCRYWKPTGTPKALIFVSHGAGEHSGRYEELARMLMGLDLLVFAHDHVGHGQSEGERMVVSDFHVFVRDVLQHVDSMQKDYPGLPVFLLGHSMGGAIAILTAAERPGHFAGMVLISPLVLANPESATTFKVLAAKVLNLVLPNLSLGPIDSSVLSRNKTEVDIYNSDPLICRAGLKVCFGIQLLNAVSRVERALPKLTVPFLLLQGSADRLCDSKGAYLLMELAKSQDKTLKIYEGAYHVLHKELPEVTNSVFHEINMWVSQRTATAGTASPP

[2] = biological target: T1, human monoacylglycerol lipase (hMAGL); test: target-based real-time 1H NMR (chemical shift perturbation, covalent adduct formation and reactivation; residence time […] h); IC50 on recombinant hMAGL also printed; format: biochemical; details: cited from earlier work

Substance	target-based real-time 1H NMR (chemical shift perturbation, covalent adduct form) [1]	pIC50 [2]
AM4301	1.4 h	–
AM9928	–	8.05
